Test results taken from patent US20240139333A1, “2,6-DICHLOROPHENYL ESTER COMPOUNDS AND USE THEREOF” (Fusion Pharmaceuticals Inc., priority 2021, published 2024).

Tests used:
[1] = Temperature stability study in H2O; assay type: physicochemical
Experimental: (§1) 20° C.: To a 4 mL scintillation vial containing Compound A-E (in respective experiments; 0.8 mg) was added 4 mL of HPLC grade water to create a 0.2 mg/mL solution. 2 mL of this solution was added to a 2 mL HPLC vial and placed in the auto sampler of an HPLC-MS at 20° C. Timed aliquots at time (T)=15, 30, 60, 120, 240 and 480 minutes were taken and analyzed by HPLC-MS using elution method 1 (Table 4).
50° C.: To a 4 mL scintillation vial containing Compound A-E (in respective experiments; 0.8 mg) was added a stir bar followed by 4 mL of HPLC grade water to create a 0.2 mg/mL solution. The vial was capped and allowed to stir in a 50° C. oil bath for 8 hours. Timed aliquots at time (T) =15, 30, 60, 120, 240 and 480 minutes were taken and analyzed by HPLC-MS using elution method 1 (Table 4).

[2] = Comparative active ester reactivity study with HOPO nucleophile; settings: 1,2-HOPO 1 eq., 22±2° C.
Experimental: (§2) General Experimental Protocol for Comparative Active Ester Reactivity Study with HOPO or HOA Nucleophiles
(§3) To a 4 mL scintillation vial containing Compound A-E (in respective experiments; 1 eq.) was added a stir bar followed by 150 μL of HPLC grade acetonitrile. In another 4 mL scintillation vial containing a respective nucleophile (1 eq.) was added 280 μL HPLC grade water. The solutions were combined and allowed to stir at room temperature (22±2° C.) for 4 hours. Timed aliquots at time (T)=15, 30, 60, 120 and 240 minutes were taken and analyzed by HPLC-MS using elution method 1 (Table 1).

[3] = Comparative active ester reactivity study with HOA nucleophile (benzhydroxamic acid); settings: Benzhydroxamic Acid 1 eq., 22±2° C.
Experimental: as §2, §3

pH stability study = assay type: physicochemical; settings: 20° C.
Experimental: as §1, with “To” for “20° C.: To”, “either a pH 3, pH 5 pH 7 or pH 9 buffer” for “HPLC grade water”, “3). […]” for “4).”
pH 3 Buffer: Citric acid/Na2HPO4 (79.45 mL 0.1 M-citric acid and 20.55 mL 0.2-Na2HPO4) pH 5 Buffer: Citric acid/Na2HPO4 (48.50 mL 0.1 M-citric acid and 51.50 mL 0.2-Na2HPO4) pH 7 Buffer: Citric acid/Na2HPO4 (17.65 mL 0.1 M-citric acid and 82.35 mL 0.2-Na2HPO4) pH 9 Buffer: Sodium Carbonate/Sodium Bicarbonate (10 mL 0.1 M-Na2CO3 and 90 mL 0.1-NaHCO3)

[4] = Nucleophilic reactivity study with L-Lysine; settings: L-Lysine 5 equiv, 22±2° C.
Experimental: General Experimental Protocol for Nucleophilic Reactivity Study with L-Lysine
To a 4 mL scintillation vial containing Compound A-E (in respective experiments; 1 eq.) was added a stir bar followed by 70 μL of HPLC grade acetonitrile. In another 4 mL scintillation vial containing L-Lysine monohydrochloride (5 eq.) was added 130 μL HPLC grade water followed by diisopropylethylamine (5 eq.). The solutions were combined and allowed to stir at room temperature (22±2° C.). Timed aliquots at time (T)=15, 30, 60 and 120 minutes were taken and analyzed by HPLC-MS using elution method 1 (Table 2).

[5] = Comparative active ester reactivity study with HOA nucleophile (N-hydroxy-N-methylbenzamide); settings: N-Hydroxy-N-methylbenzamide 1 eq., 22±2° C.
Experimental: as §2, §3

DMSO stability study = assay type: physicochemical
Experimental: To a 4 mL scintillation vial containing Compound A-E (in respective experiments; 4 mg) was added a stir bar followed by 500 μL of anhydrous dimethyl sulfoxide and was allowed to stir at room temperature (22±2° C.) for 4 hours. Timed aliquots at time (T)=15, 30, 60, 120 and 240 minutes were taken, dissolved in water to achieve 2% DMSO composition and analyzed by HPLC-MS using elution method 1 (Table 5).

- % Remaining ([1]; 20° C., 15 min): 97.54%
- % Remaining ([1]; 20° C., 30 min): 96.41%
- % Remaining ([1]; 20° C., 60 min): 95.69%
- % Remaining ([1]; 20° C., 120 min): 94.78%
- % Remaining ([1]; 20° C., 240 min): 93.59%
- % Remaining ([1]; 20° C., 480 min): 91.31%
- % Remaining ([1]; 50° C., 15 min): 86.19%
- % Remaining ([1]; 50° C., 30 min): 77.18%
- % Remaining ([1]; 50° C., 60 min): 72.58%
- % Remaining ([1]; 50° C., 120 min): 67.54%
- % Remaining ([1]; 50° C., 240 min): 65.59%
- % Remaining ([1]; 50° C., 480 min): 66.22%
- % Active Ester Remaining ([2]; 15 min): 99.18%
- % Active Ester Remaining ([2]; 30 min): 96.81%
- % Active Ester Remaining ([2]; 60 min): 93.29%
- % Active Ester Remaining ([2]; 120 min): 85.25%
- % Active Ester Remaining ([2]; 240 min): 75.07%
- % Active Ester Remaining ([3]; 15 min): 96.49%
- % Active Ester Remaining ([3]; 30 min): 84.28%
- % Active Ester Remaining ([3]; 60 min): 74.58%
- % Active Ester Remaining ([3]; 120 min): 57.07%
- % Active Ester Remaining ([3]; 240 min): 34.21%
- % Remaining (pH stability study; pH 3 buffer, 15 min): 100%
- % Remaining (pH stability study; pH 3 buffer, 30 min): 99.74%
- % Remaining (pH stability study; pH 3 buffer, 60 min): 99.57%
- % Remaining (pH stability study; pH 3 buffer, 120 min): 99.21%
- % Remaining (pH stability study; pH 3 buffer, 240 min): 98.55%
- % Remaining (pH stability study; pH 3 buffer, 480 min): 97.20%
- % Remaining (pH stability study; pH 5 buffer, 15 min): 99.83%
- % Remaining (pH stability study; pH 5 buffer, 30 min): 99.54%
- % Remaining (pH stability study; pH 5 buffer, 60 min): 99.19%
- % Remaining (pH stability study; pH 5 buffer, 120 min): 98.63%
- % Remaining (pH stability study; pH 5 buffer, 240 min): 97.52%
- % Remaining (pH stability study; pH 5 buffer, 480 min): 94.89%
- % Remaining (pH stability study; pH 7 buffer, 15 min): 99.11%
- % Remaining (pH stability study; pH 7 buffer, 30 min): 98.00%
- % Remaining (pH stability study; pH 7 buffer, 60 min): 96.59%
- % Remaining (pH stability study; pH 7 buffer, 120 min): 94.83%
- % Remaining (pH stability study; pH 7 buffer, 240 min): 89.25%
- % Remaining (pH stability study; pH 7 buffer, 480 min): 78.56%
- % Remaining (pH stability study; pH 9 buffer, 15 min): 83.05%
- % Remaining (pH stability study; pH 9 buffer, 30 min): 61.77%
- % Remaining (pH stability study; pH 9 buffer, 60 min): 42.40%
- % Remaining (pH stability study; pH 9 buffer, 120 min): 23.66%
- % Remaining (pH stability study; pH 9 buffer, 240 min): 14.96%
- % Remaining (pH stability study; pH 9 buffer, 480 min): 10.31%
- % Active Ester Remaining ([4]; 15 min): 8.34%
- % Active Ester Remaining ([4]; 30 min): 0%
- % Active Ester Remaining ([5]; 15 min): 95.63%
- % Active Ester Remaining ([5]; 30 min): 90.98%
- % Active Ester Remaining ([5]; 60 min): 83.40%
- % Active Ester Remaining ([5]; 120 min): 65.46%
- % Active Ester Remaining ([5]; 240 min): 41.73%
- % Active Ester Remaining in DMSO at 22 ± 2° C. (DMSO stability study; 15 min): 99.35%
- % Active Ester Remaining in DMSO at 22 ± 2° C. (DMSO stability study; 30 min): 98.99%
- % Active Ester Remaining in DMSO at 22 ± 2° C. (DMSO stability study; 60 min): 99.29%
- % Active Ester Remaining in DMSO at 22 ± 2° C. (DMSO stability study; 120 min): 99.65%
- % Active Ester Remaining in DMSO at 22 ± 2° C. (DMSO stability study; 240 min): 99.31%
Compound: O=C(CCc1cccnc1)Oc1ccc([N+](=O)[O-])cc1 [Compound D, 4-Nitrophenyl-3-(pyridin-3-yl)propanoate]
